In patent US20090060873A1, “Novel synthetic triterpenoids and methods of use in the treatment and prevention of multiple scleroris” (Reata Pharmaceuticals, Inc., priority 2007, published 2009):
“Also recorded” adds a separate entry of the source.

Experiments:
heme oxygenase-1 (HO-1) = conditions: nanomolar concentrations; cited from earlier work
[1] = Brain levels of triterpenoids in mice fed compound in diet (LC/MS)
[2] = Tissue distribution of CDDO-Me in cynomolgus monkeys after 3 days of oral dosing; type: in vivo; conditions: cynomolgus monkey, about 3 h after last dose, sesame oil vehicle
Protocol: Experiments using CDDO-Me (RTA-402) were also conducted on 1 male and 1 female cynomolgus monkey (origin: Vietnam) between the ages of 2 and 3 years and weighing approximately 1.7 kg. Each received the test article (CDDO-Me in sesame oil) at 75 mg/kg/day via oral gavage administered at a volume of 5 mL/kg on Days 1, 2, and 3. Individual doses were based on the most recently obtained body weights. Blood samples were collected from the femoral artery/vein for determination of the plasma concentrations of the test article at 0.5, 1.5, 3, and 12 hours after dosing on Days 1 and 2 and at 0.5, 1.5, and 3 hours after dosing (±0.5 hour) on Day 3.
At the termination of the study (approximately three hours after dosing on Day 3), all animals were euthanized and tissues collected. Samples (approximately 1 g or greater) of the adipose tissue, brain, colon, cheek pouch (buccal mucosa), heart, ileum, kidney, liver, lung, mammary glands, ovaries, pancreas, prostate, and bone marrow from the femur (as much as possible) were collected and frozen at approximately −20° C. for analysis for the presence of the test article. All other tissues and organs were discarded.
In Table 1 nM is ng/mL×1000/505.8, where 505.8 is the molecular weight of RTA-402 using the approximation that the density of the tissue is that of water.

NF-κB = NF-κB activated by TNF, IL-1β, phorbol ester, okadaic acid, hydrogen peroxide, LPS, cigarette smoke; cited from earlier work
MOG-induced EAE [3] = assay: Prophylactic treatment in MOG EAE model; type: in vivo, mouse; conditions: 100 nanomoles IP, pre and/or post MOG (Day -1, 1, 3, 5); FIGS. 23, 24
Protocol: FIGS. 23 & 24—Prophylactic Treatment of CDDO-Me (RTA 402) or CDDO-TFEA (RTA-404) Delays Induction of Symptoms in Model of Multiple Sclerosis.
In prophylactic studies (FIGS. 23-24) the following design was used:
Day-1: 100 nanomoles IP RTA 404 (2.9 mg/kg) or RTA 402 (2.5 mg/kg) in pre and pre/post groups
Day 1: 100 nanomoles IP RTA 404 (2.9 mg/kg) or RTA 402 (2.5 mg/kg) in post and pre/post groups
Day 3: 100 nanomoles IP RTA 404 (2.9 mg/kg) or RTA 402 (2.5 mg/kg) in post and pre/post groups
Day 5: 100 nanomoles IP RTA 404 (2.9 mg/kg) or RTA 402 (2.5 mg/kg) in post and pre/post groups

MOG-induced EAE [4] = assay: MOG-induced rapidly progressive EAE model, treatment, clinical score; type: in vivo, mouse; conditions: 100 nmol (~2.8 mg/kg) IP, Q2Dx4, in 7.5% PBST, n=2/group

CC1(C)CC[C@]2(C(=O)O)CC[C@]3(C)[C@H](C(=O)C=C4[C@@]5(C)C=C(C#N)C(=O)C(C)(C)[C@@H]5CC[C@]43C)[C@@H]2C1 [CDDO, 2-cyano-3,12-dioxooleane-1,9(11)-dien-28-oic acid]
expression of HO-1 (heme oxygenase-1 (HO-1)): rapidly increase the expression of the cytoprotective heme oxygenase-1 (HO-1) enzyme

CC1(C)CC[C@]2(C(=O)n3ccnc3)CC[C@]3(C)[C@H](C(=O)C=C4[C@@]5(C)C=C(C#N)C(=O)C(C)(C)[C@@H]5CC[C@]43C)[C@@H]2C1 [CDDO-Im]
expression of HO-1 (heme oxygenase-1 (HO-1)): rapidly increase the expression of the cytoprotective heme oxygenase-1 (HO-1) enzyme

CNC(=O)[C@]12CCC(C)(C)C[C@H]1C1C(=O)C=C3[C@@]4(C)C=C(C#N)C(=O)C(C)(C)[C@@H]4CC[C@@]3(C)[C@]1(C)CC2 (some centres unmarked) [CDDO-MA]
concentration in brains of mice ([1]; 800 mg/kg diet, 2 or 4 days, FIG. 2): Significant Concentrations

COC(=O)[C@]12CCC(C)(C)C[C@H]1[C@H]1C(=O)C=C3[C@@]4(C)C=C(C#N)C(=O)C(C)(C)[C@@H]4CC[C@@]3(C)[C@]1(C)CC2 [CDDO-Me]
average tissue concentration, Breast [2]: 4,389 nM | average tissue concentration, Colon [2]: 4,467 nM | average tissue concentration, Kidney [2]: 1,603 nM | average tissue concentration, Liver [2]: 926 nM | average tissue concentration, Lung [2]: 4,992 nM | average tissue concentration, Ovary [2]: 2,115 nM | average tissue concentration, Prostate [2]: 4,446 nM | tissue concentration, Brain (range of results obtained) [2]: 215 to 447 nM | inhibition of constitutive and inducible NF-κB (NF-κB): potently inhibits both constitutive and inducible NF-κB | delay of development of clinical scores (MOG-induced EAE [3]): modestly delayed | recovery of clinical score (CS 0 no symptoms, 6 quadriplegia) (MOG-induced EAE [4]): induce full recovery of mice | recovery of clinical score (CS 0 no symptoms, 6 quadriplegia) (MOG-induced EAE [4]; listed as RTA 402): induce complete recovery of symptoms after initial relapse | recovery of clinical score (CS 0 no symptoms, 6 quadriplegia) (MOG-induced EAE [4]; listed as RTA-402): Induce Full Recovery of Mice; also recorded: Treated Animals Recover | level of compound in mouse brain ([1]; fed very low levels in diet for one week (100 mg/kg diet), FIG. 1): able to reach appreciable levels in the brain; also recorded: Detectable in the Brains of Mice
